≈ marks a conversion by molar mass, not a printed value.
Legend:
S. aureus = assay: Preservation challenge test in O/W emulsion base #1, log reduction of viable microorganisms by plate count; type: cell-based; conditions: combined with another antimicrobial component in base #1, up to 28 days, FIGS. 12 to 19
Experimental: (§1) An O/W emulsion (base #1) was prepared as follows, and n-heptyl glyceryl ether, further antimicrobial compounds and combinations thereof were added to these bases:
(§2) Processing: • 1. Premix phase A and B separately and heat up to 78° C. • 2. Add phase A1 to A under stirring and wait until everything is dissolved. • 3. Add phase B to A under stirring. (Speed 6, for 30 sec.) Homogenize for 90 sec. using an Ultra Turrax. • 4. Cool down using a water bath • 5. Adjust pH.
(§3) Preparatory to the test, the surface of casein soya bean digest agar for bacteria or Saboraud-dextrose agar without the addition of antibiotics for fungi is inoculated with the recently grown stock culture of each of the specified microorganisms. […]
(§4) To count the viable microorganisms in the inoculated products, the agar medium used for the initial cultivation of the respective microorganism is used. […] At zero hour and at 7, 14 and 28 days 1 ml is removed from the sample and the number of viable microorganisms is determined by plate count. […]
To determine the efficacy of the antimicrobial composition, n-heptyl glyceryl ether, another antimicrobial compound and combinations thereof were incorporated into base as shown above. The antimicrobial activity against S. aureus was then evaluated as described above. […]

C. albicans = assay: as above; type: cell-based; conditions: combined with another antimicrobial component in base #1, up to 28 days, FIGS. 20 to 25
Experimental: as §1, §2, §3, §4
To determine the efficacy of the antimicrobial composition, n-heptyl glyceryl ether, another antimicrobial compound and combinations thereof were incorporated into base #1 as shown above. The antimicrobial activity against C. albicans was then evaluated as described above. […]

A. brasiliensis = assay: as above; type: cell-based; conditions: combined with another antimicrobial component in base #1, up to 28 days, FIGS. 1 to 12
Experimental: Preparatory to the test, the surface of casein soya bean digest agar for bacteria or Saboraud-dextrose agar without the addition of antibiotics for fungi is inoculated with the recently grown stock culture of each of the specified microorganisms. The bacterial cultures are inoculated at 30-35° C. for 18-24 hours, the culture of C. albicans at 20-25° C. for 48 hours, and the culture of A. brasiliensis at 20-25° C. for 1 week or until good sporulation is obtained.
To count the viable microorganisms in the inoculated products, the agar medium used for the initial cultivation of the respective microorganism is used. The test sample is inoculated with a suspension of the test organism to give an inoculum of 10^5 to 10^6 microorganisms per milliliter of the preparation. […] The suspension is mixed thoroughly to ensure homogeneous distribution. The inoculated product is maintained at 20-25° C., protected from light. At zero hour and at 7, 14 and 28 days 1 ml is removed from the sample and the number of viable microorganisms is determined by plate count. […]
To determine the efficacy of the antimicrobial composition, n-heptyl glyceryl ether, another antimicrobial compound and combinations thereof were incorporated into base # as shown above. The antimicrobial activity against A. brasiliensis was then evaluated as described above. […]

[1] = Water solubility / critical micelle concentration of n-heptyl-glyceryl ether; type: physicochemical; conditions: water, without component B); read-out: water solubility before micelles are forming
Source text: N-heptyl-glyceryl ether has a water solubility of approximately 2 g/l before micelles are forming.

CCCCC(CC)COCC(O)CO (stereo not shown) [ethylhexyl glycerin, reference compound]
synergistic antimicrobial effect (log 10 reduction of combination greater than sum of individual components) (S. aureus): No such synergism | synergistic antimicrobial effect (log 10 reduction of combination greater than sum of individual components) (C. albicans): No such synergism | synergistic antimicrobial effect (log 10 reduction of combination greater than sum of individual components) (A. brasiliensis): No such synergism

CCCCCCCOCC(O)CO (stereo not shown) [n-heptyl glyceryl ether]
solubility [1]: ~2000 µg/mL (≈ 10.5 mM) | synergistic antimicrobial effect (log 10 reduction of combination greater than sum of individual components) (S. aureus): synergistic antimicrobial effects | synergistic antimicrobial effect (log 10 reduction of combination greater than sum of individual components) (C. albicans): synergistic antimicrobial effects | synergistic antimicrobial effect (log 10 reduction of combination greater than sum of individual components) (A. brasiliensis): synergistic antimicrobial effects

Reference: patent US12551421B2, “N-heptyl-glyceryl ether and synergistically active preservatives” (Evonik Operations GmbH, priority 2020, dated 2026)
